Results published in patent US7378411B2, “Substituted thienopyrimidinones as a mitotic kinesin inhibitor” (Merck & Co., Inc., priority 2001, dated 2008).
pIC50: −log10 of the molar value.

target: T1, human KSP motor domain (Homo sapiens, UniProt P52732); test: Kinesin ATPase In Vitro Assay; assay type: biochemical; settings: KSP(367H) motor domain with microtubules, 1 mM ATP, 23° C.; free phosphate by quinaldine red/ammonium molybdate
T1 construct: were used to amplify the motor domain and the neck linker region; made in house; host or cells: E. coli BL21 (DE3), pRSETa
T1 sequence (P52732 18-359 limits assumed): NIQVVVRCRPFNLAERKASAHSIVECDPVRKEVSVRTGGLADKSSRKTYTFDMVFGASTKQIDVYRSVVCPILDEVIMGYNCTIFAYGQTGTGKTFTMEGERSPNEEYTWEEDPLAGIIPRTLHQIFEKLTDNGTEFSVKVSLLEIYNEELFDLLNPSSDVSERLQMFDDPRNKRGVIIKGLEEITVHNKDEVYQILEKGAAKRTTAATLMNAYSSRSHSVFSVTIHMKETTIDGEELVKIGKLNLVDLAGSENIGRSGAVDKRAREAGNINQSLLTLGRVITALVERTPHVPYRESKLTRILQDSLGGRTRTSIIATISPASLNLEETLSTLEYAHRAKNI
Source text: I. Kinesin ATPase In Vitro Assay
Cloning and Expression of Human Poly-histidine Tagged KSP Motor Domain (KSP(367H))
Plasmids for the expression of the human KSP motor domain construct were cloned by PCR using a pBluescript full length human KSP construct (Blangy et al., Cell, vol. 83, pp 1159-1169, 1995) as a template. The N-terminal primer 5′-[…] (SEQ.ID.NO.:) and the C-terminal primer 5′-[…] […] (SEQ.ID.NO.:) were used to amplify the motor domain and the neck linker region. The PCR products were digested with AseI and XhoI, ligated into the NdeIl/XhoI digestion product of pRSETa (Invitrogen) and transformed into E. coli BL21 (DE3).
Cells were grown at 37° C. to an OD600 of 0.5. After cooling the culture to room temperature expression of KSP was induced with 100 μM IPTG and incubation was continued overnight. Cells were pelleted by centrifugation and washed once with ice-cold PBS. Pellets were flash-frozen and stored −80° C.
Cell pellets were thawed on ice and resuspended in lysis buffer (50 mM K-HEPES, pH 8.0, 250 mM KCl, 0.1% Tween, 10 mM imidazole, 0.5 mM Mg-ATP, 1 mM PMSF, 2 mM benzimidine, 1× complete protease inhibitor cocktail (Roche)). Cell suspensions were incubated with 1 mg/ml lysozyme and 5 mM β-mercaptoethanol on ice for 10 minutes, followed by sonication (3×30 sec). All subsequent procedures were performed at 4° C. Lysates were centrifuged at 40,000×g for 40 minutes. Supernatants were diluted and loaded onto an SP Sepharose column (Pharmacia, 5 ml cartridge) in buffer A (50 mM K-HEPES, pH 6.8, 1 mM MgCl2, 1 mM EGTA, 10 μM Mg-ATP, 1 mM DTT) and eluted with a 0 to 750 mM KCl gradient in buffer A. Fractions containing KSP were pooled and incubated with Ni-NTA resin (Qiagen) for one hour. The resin was washed three times with buffer B (Lysis buffer minus PMSF and protease inhibitor cocktail), followed by three 15-minute incubations and washes with buffer B. Finally, the resin was incubated and washed for 15 minutes three times with buffer C (same as buffer B except for pH 6.0) and poured into a column. KSP was eluted with elution buffer (identical to buffer B except for 150 mM KCl and 250 mM imidazole). KSP-containing fractions were pooled, made 10% in sucrose, and stored at −80° C.
Microtubules are prepared from tubulin isolated from bovine brain. Purified tubulin (>97% MAP-free) at 1 mg/ml is polymerized at 37° C. in the presence of 10 μM paclitaxel, 1 mM DTT, 1 mM GTP in BRB80 buffer (80 mM K-PIPES, 1 mM EGTA, 1 mM MgCl2 at pH 6.8). The resulting microtubules are separated from non-polymerized tubulin by ultracentrifugation and removal of the supernatant. The pellet, containing the microtubules, is gently resuspended in 10 μM paclitaxel, 1 mM DTT, 50 μg/ml ampicillin, and 5 μg/ml chloramphenicol in BRB80.
The kinesin motor domain is incubated with microtubules, 1 mM ATP (1:1 MgCl2: Na-ATP), and compound at 23° C. in buffer containing 80 mM K-HEPES (pH 7.0), 1 mM EGTA, 1 mM DTT, 1 mM MgCl2, and 50 mM KCl. […] Free phosphate from the ATP hydrolysis reaction is measured via a quinaldine red/ammonium molybdate assay by adding 150 μl of quench C buffer containing a 2:1 ratio of quench A:quench B. Quench A contains 0.1 mg/ml quinaldine red and 0.14% polyvinyl alcohol; quench B contains 12.3 mM ammonium molybdate tetrahydrate in 1.15 M sulfuric acid. The reaction is incubated for 10 minutes at 23° C., and the absorbance of the phospho-molybdate complex is measured at 540 nm.

**Q.** `CCC(c1nc2sccc2c(=O)n1Cc1ccccc1)N(CCN(C)C)Cc1ccc(Br)cc1` (centres unmarked) [Compound 4-1, 3-benzyl-2-(1-{(4-bromobenzyl)[2-(dimethylamino)ethyl]amino}propyl)thieno[2,3-d]pyrimidin-4(3H)-one] was tested. Which pIC50 did it give?
**A.** ≥ 4.30

**Q.** With `CCC(c1nc2ccsc2c(=O)n1Cc1ccccc1)N(CCN(C)C)C(=O)c1ccc(Br)cc1` (centres unmarked) [Compound 1-8, N-[1-(3-Benzyl-4-oxo-3,4-dihydrothieno[3,2-d]pyrimidin-2-yl)propyl]-4-bromo-N-[2-(dimethylamino)ethyl]benzamide] as the compound, how does the pIC50 read?
**A.** ≥ 4.30

**Q.** With `CCC(c1nc2sc(Br)cc2c(=O)n1Cc1ccccc1)N(CCN(C)C)C(=O)c1ccc(Br)cc1` (centres unmarked) [Compound 2-10, N-[1-(3-benzyl-6-bromo-4-oxo-3,4-dihydrothieno[2,3-d]pyrimidin-2-yl)propyl]-4-bromo-N-[2-(dimethylamino)ethyl]benzamide] as the compound, how does the pIC50 read?
**A.** ≥ 4.30

**Q.** `CCC(c1nc2sccc2c(=O)n1Cc1ccccc1)N(CCN(C)C)C(=O)c1ccc(Br)cc1` (centres unmarked) [Compound 3-2, N-[1-(3-benzyl-4-oxo-3,4-dihydrothieno[2,3-d]pyrimidin-2-yl)propyl]-4-bromo-N-[2-(dimethylamino)ethyl]benzamide] was tested. Which pIC50 did it give?
**A.** ≥ 4.30

**Q.** `CCC(c1nc2sc(Br)c(Br)c2c(=O)n1Cc1ccccc1)N(CCN(C)C)C(=O)c1ccc(Br)cc1` (centres unmarked) [Compound 2-9, N-[1-(3-benzyl-5,6-dibromo-4-oxo-3,4-dihydrothieno[2,3-d]pyrimidin-2-yl)propyl]-4-bromo-N-[2-(dimethylamino)ethyl]benzamide] was tested. Which pIC50 did it give?
**A.** ≥ 4.30
